Entries after “also recorded” stand apart in the source; their conditions may differ.
Legend:
human primary NK cells = assay: CD38 and CD38-CAR expression by flow cytometry in NK cells; assay type: cell-based; settings: CAR inserted at CD38 locus, 75,000 vg/cell AAV6, seven days post-transduction (FIG. 18C)
Protocol: (§1) CD38^KO/CD38-CAR T cells or NK cells were generated by electroporation of HiFi Cas9 Nuclease V3 (Integrated DNA Technologies, Coralville, IA) and gRNA targeting exon 1 of the CD38 gene (5-[…]) (SEQ ID NO: 1). Knock-out cells were then returned to culture media and transduced within 30 minutes with 75,000 vg/cell of Adeno-Associated Virus Type 6 (AAV6, Andelyn Biosciences) vector containing the CAR expression cassette with CD38 homology arms.
(§2) Cells were stained in PBS buffer containing 2% FBS using anti-CD38/PE (Miltenyi Biotec, clone REA572), CD38 Fc Chimera Protein (R&D Systems, rhCD38) followed by secondary staining with Alexa Fluor 647 AffiniPure Goat Anti-Human IgG (Jackson ImmunoResearch), and Tonbo Ghost Dye 450 (Tonbo Biosciences, San Diego, CA, USA). See representative gating strategy (FIG. 25).

human primary T cells = assay: CD38 and CD38-CAR expression by flow cytometry in T cells; assay type: cell-based; settings: T cells, 75,000 vg/cell AAV6 (FIG. 22B)
Protocol: Human primary T cells were isolated from donor buffy coats using RosetteSep™ Human T Cell Enrichment Cocktail (Stem Cell Technologies, Vancouver, BC, Canada) as described for NK cells. Isolated T cells were stimulated on day 0 with Human T-Activator CD3/CD28 (Thermo Fisher Scientific). Stimulated T cells were cultured in RPMI 1640 media plus Glutamax, 10% FBS at a concentration of 1.0e6 cells/mL and supplemented with 50 IU/mL human recombinant IL-7 and IL-15 (Biolegend, San Diego, CA) every 2-3 days.
Two days after cytokine activation the T cells were electroporated and transduced as described below. After transduction the cells were expanded in RPMI 1640 media plus Glutamax, 10% FBS at 1.0e6 cells/mL with IL-7 and IL-15 supplemented at 50 IU/mL every 2-3 days for up to 10 days.
as §1, with “arms. […]” for “arms.”

H929 = assay: 4-hour calcein AM cytotoxicity assay; assay type: cell-based, human; settings: H929 (MM), 4-hour assay
Protocol: (§3) CSTX002 feeder cells, derived from K562 and transduced to express membrane-bound IL-21 and 4-1BBL (referred to hereafter as FC21) were cultured in RMPI 1640 media containing 10% fetal bovine serum (FBS) at 37° C., 5% CO2. FC21 were treated with 100 Gy x-ray irradiation (Faxitron, Tucson AZ) prior to coculture with NK cells. Human AML cell line MV4-11, MM cell lines MM1S and H929, and BL cell lines Daudi and Raji were purchased from American type culture collection (ATCC). Primary human AML cells (AML10) were obtained from a pediatric patient with relapsed M5 AML and passaged in NOD-SCID mice. Primary human AML, Pre-T ALL, T-PLL, MM, and HSTCL were obtained from the Ohio State University Comprehensive Cancer Center Leukemia Tissue Bank. Tumor cell lines were cultured in RPMI 1640 media plus Glutamax, 10% FBS and routinely tested for mycoplasma contamination. Anonymized human buffy coats were obtained from the American Red Cross of Ohio (Columbus, OH, USA) as healthy donor lymphocyte source material, designated not human subjects research by the institutional review board.
(§4) 4-hour cytotoxicity assays were performed using calcein AM (Fisher Scientific, Hampton, NH). Briefly, target tumor cells were stained with 2 μg/mL calcein AM and co-cultured with effector cells at the indicated Effector:Target ratios. After 4 hours, culture supernatant was assessed by fluorimetry and percent specific lysis calculated using maximum and minimum controls. Cytotoxicity is plotted as percent specific lysis.

MV4-11 = assay: 4-hour calcein AM cytotoxicity assay; assay type: cell-based, human; settings: MV4-11 (AML), 4-hour assay
Protocol: as §3, §4

Raji = assay: 4-hour calcein AM cytotoxicity assay; assay type: cell-based, human; settings: Raji (BL), 4-hour assay
Protocol: as §3, §4

AML cell lines = assay: CD38 surface expression after ATRA treatment (flow cytometry); assay type: cell-based, human; settings: AML cell lines with lowest baseline CD38, 10 nM ATRA for 48 hours
Source text: as §2
(§5) To further augment the antitumor activity of the CD38-CAR NK cells, we explored combination therapy with ATRA. ATRA is a differentiation agent that upregulates CD38 expression in many cell types. Across cell lines of AML, MM, and BL, we observed variable responses in CD38 expression after treatment with 10 nM ATRA for 48 hours (FIG. 20A). […] Thus, ATRA appears to have a cell line dependent effect on the increase in CD38 surface density and sensitivity to CAR NK cell killing (FIG. 20A, 20C).

BL = assay: as above; assay type: cell-based, human; settings: high CD38-expressing BL, 10 nM ATRA for 48 hours
Source text: as §2, §5

MM cell lines = assay: as above; assay type: cell-based, human; settings: intermediate to high CD38-expressing MM cell lines, 10 nM ATRA for 48 hours
Source text: as §2, §5

CD38^KO NK cells = assay: Effect of ATRA on NK cell function or viability; assay type: cell-based, human
primary AML cells = assay: Mass cytometry lysis assay; assay type: cell-based, human; settings: with ATRA, prior to co-culture with NK cells
Protocol: A primary AML patient cell sample (OSU leukemia tissue bank) was cultured in a 6-well plate (pre-coated with rat tail collagen [Corning]) in serum free media (SFEM) supplemented with a cytokine cocktail (IL-6, IL-3, FLT3, GMCSF, GCSF, and TPO at 6.66 ng/mL, EPO at 3.33 ng/mL, SCF at 20 ng/mL; Stem Cell Technologies). The primary AML samples were cultured for 24 hours with or without 10 nM ATRA. After 24 hours, wild-type or CD38^KO/CD38 CAR-NK cells were added at a ratio of 1:1 and co-cultured for 24 hours. Control wells were cultured in parallel. Cell were stained and events were acquired on the Helios CyTOF system (Fluidigm, Toronto, Canada). Cells were identified using markers and analyzed using SPADE.

Molecule	median AAV6 transduction efficiency (human primary NK cells)	median AAV6 transduction efficiency (human primary T cells)	cytotoxicity compared to wildtype cells (H929)	cytotoxicity compared to wildtype cells (MV4-11)	cytotoxicity compared to wildtype cells (Raji)	CD38 expression after ATRA treatment (AML cell lines)	CD38 expression after ATRA treatment (BL)	CD38 expression after ATRA treatment (MM cell lines)	adverse effect on function or viability of CD38^KO NK cells (CD38^KO NK cells)	live cell population of primary AML cells (primary AML cells)
V4: Isatuximab-based anti-CD38 CAR construct with reversed heavy/light chain order, SEQ ID NO: 29/30	61.9%	35.9%	significant increase in cytotoxicity	significant increase in cytotoxicity	significant increase in cytotoxicity	–	–	–	–	–
CC1=C(/C=C/C(C)=C/C=C/C(C)=C/C(=O)O)C(C)(C)CCC1 [ATRA, all-trans retinoic acid]	–	–	–	–	–	greatest proportional increase; also recorded: greatest increases	no observable increase	minor increase	did not have any adverse effect	77.5%
V3: Isatuximab-based anti-CD38 second-generation CAR construct with CD3ζ, 41BB and CD8α TM/hinge, SEQ ID NO: 27/28	60.7%	44.4%	significant increase in cytotoxicity	significant increase in cytotoxicity	significant increase in cytotoxicity	–	–	–	–	–

Source: patent publication US20260207666A1, “CD38 AS INTEGRATION SITE FOR ENHANCED FUNCTION OF GENE-MODIFIED IMMUNE CELLS” (RESEARCH INSTITUTE AT NATIONWIDE CHILDREN'S HOSPITAL, priority 2022, published 2026)
